{
  "source": "patent US9862684B2",
  "about": "“Modulation of K2P channels” (The Regents of the University of California, priority 2013, dated 2018)",
  "key": {"[1]": {"target": "T1, K2P2.1 (TREK-1) G137I (Mus musculus, UniProt P97438, G152I)", "T1 construct": "expressed in transfected cells; host or cells: Xenopus oocytes", "T1 sequence (P97438 1-411 isoform P97438-2 G137I)": "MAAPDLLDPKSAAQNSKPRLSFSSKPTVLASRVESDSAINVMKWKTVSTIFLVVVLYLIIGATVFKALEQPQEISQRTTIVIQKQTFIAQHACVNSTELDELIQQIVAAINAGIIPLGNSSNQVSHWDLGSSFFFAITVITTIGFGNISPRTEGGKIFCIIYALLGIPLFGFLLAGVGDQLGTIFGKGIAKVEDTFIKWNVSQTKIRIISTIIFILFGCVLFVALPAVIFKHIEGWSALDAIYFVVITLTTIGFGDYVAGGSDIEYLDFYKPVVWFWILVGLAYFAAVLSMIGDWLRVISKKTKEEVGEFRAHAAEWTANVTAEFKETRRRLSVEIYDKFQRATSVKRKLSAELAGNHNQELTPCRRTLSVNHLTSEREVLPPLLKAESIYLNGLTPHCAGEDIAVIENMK", "assay": "Two-electrode voltage clamp, Xenopus oocytes, C-type gate mutant G137I", "format": "cell-based, Murine", "protocol": "(§1) I-V curves were measured by two-electrode voltage clamp of Xenopus oocytes in b, 90 mM [K^+]o. or c-e, 2 mM [K^+]o. […] Data (were measured at 20 mV (90 mM [K^+]o) or 0 mV (2 mM [K^+]o), normalized to basal channel activity, and fitted to the Hill equation. Error bars indicate s.e., n≧6, N≧2.\n(§2) Murine K2P channels were cloned into pGEMHE/pMO {Bagriantsev, 2011}, IRES-GFP (Invitrogen), or pYES2-MET25 (high copy 2μ, URA3) {Minor, 1999} for expression in oocytes, HEK-293T cells, and yeast, respectively, using standard molecular biology procedures, and verified by DNA sequencing.\n(§3) Two-electrode voltage clamp recordings were performed from defolliculated stage V-VI Xenopus oocytes 24-48 hours after injection with 0.015-6.0 ng cRNA, using microelectrodes (0.3-3.0 MΩ) filled with 3M KCl. Data was acquired using the GeneClamp 500B (MDS Analytical Technologies) amplifier controlled by the pClamp software (Molecular Devices), and digitized at 1 kHz using Digidata 1332A (MDS Analytical Technologies). Recording solutions (mM): 2K (96 NaCl, 2 KCl, 1.8 CaCl2, 2 MgCl2), 90K (90 KCl, 8 NaCl, 1.8 CaCl2, 2 MgCl2), were buffered 5 mM HEPES pH 7.4. For K2P recordings, currents we elicited by a 1 second long ramp from −150 to +50 mV from a holding potential of −80 mV (2K), or −100 to +50 mV from a holding potential of 0 mV (90K). […]"}, "[2]": {"target": "T2, Kv7.2 (KCNQ2) (Homo sapiens, UniProt O43526)", "T2 construct": "expressed in transfected cells; host or cells: Xenopus oocytes", "assay": "Two-electrode voltage clamp, Xenopus oocytes expressing Kv7.2 (KCNQ2)", "format": "cell-based", "conditions": "ML67-33 at 100 μM; ML67 concentration not stated", "protocol": "FIG. 12 Exemplar I-V curves showing the effect of 100 μM ML67-33 Kv7.2 (KCNQ2) measured by two-electrode voltage clamp in Xenopus oocytes in 2 mM [K^+]o pH 7.4. Currents were elicited by a step protocol from −120 to 60 mV, in 20 mV increments, from a holding potential of −80 mV.\nTwo-electrode voltage clamp recordings were performed from defolliculated stage V-VI Xenopus oocytes 24-48 hours after injection with 0.015-6.0 ng cRNA, using microelectrodes (0.3-3.0 MΩ) filled with 3M KCl. Data was acquired using the GeneClamp 500B (MDS Analytical Technologies) amplifier controlled by the pClamp software (Molecular Devices), and digitized at 1 kHz using Digidata 1332A (MDS Analytical Technologies). Recording solutions (mM): 2K (96 NaCl, 2 KCl, 1.8 CaCl2, 2 MgCl2), 90K (90 KCl, 8 NaCl, 1.8 CaCl2, 2 MgCl2), were buffered 5 mM HEPES pH 7.4. For K2P recordings, currents we elicited by a 1 second long ramp from −150 to +50 mV from a holding potential of −80 mV (2K), or −100 to +50 mV from a holding potential of 0 mV (90K). For KCNQ2 recordings, currents were elicited by a step protocol from −120 to 60 mV, in 20 mV increments, from a holding potential of −80 mV. Patch-clamp recordings from HEK-293T cells were performed using microelectrodes (2-3 MΩ) filled with 1M KCl. Data was acquired using the Axopatch 200B amplifier controlled by pClamp software, and digitized at 1 kHz using Digidata 1332A. Recording solutions (mM): intracellular (145 KCl, 5 EGTA, 3 MgCl2,) extracellular (150 NaCl, 5 KCl, 3 MgCl2, 1 CaCl2) were buffered with 5 mM HEPES pH 7.2 and 7.4, respectively. Currents were elicited by a 1 second long ramp from −150 to +50 mV from a holding potential of −80 mV. Data were fitted with a modified Hill's equation: I=Imin+(Imax−Imin)/(1+10^((Log EC50−Log [C])*H)), where Imax and Imin are maximal and minimal current values, respectively, EC50 is a half-maximal effective concentration of the compound, and H is the Hill coefficient."}, "[3]": {"target": "T3, K2P2.1 (TREK-1) W275S (Mus musculus, UniProt P97438, W290S)", "T3 construct": "expressed in transfected cells; host or cells: Xenopus oocytes", "T3 sequence (P97438 1-411 isoform P97438-2 W275S)": "T1 sequence (P97438 1-411 isoform P97438-2 G137I) with I137G, W275S", "assay": "Two-electrode voltage clamp, Xenopus oocytes, C-type gate mutant W275S", "format": "cell-based, Murine", "protocol": "as §1, §2, §3"}},
  "note": "Positions count from the first letter of the chain named.",
  "data": [
    {"compound": "CC1(C)c2cc(Cl)ccc2N(CCc2nnn[nH]2)c2ccc(Cl)cc21", "note": "[ML67-33, 2,7-dichloro-9,9-dimethyl-10-[2-(1H-tetrazol-5-yl)ethyl]acridine]", "values": [
      {"measurement": "response to ML67-33 activation (in words)", "setting": "[1]", "value": "completely resistant"},
      {"measurement": "Emax (fold) at 150 μM", "setting": "[1]; at 150 μM", "value": "0.9 ± 0.1", "unit": "at 150 μM fold"},
      {"measurement": "effect on Kv7.2 (KCNQ2) (in words)", "setting": "[2]", "value": "no effect"},
      {"measurement": "EC50", "setting": "[3]", "value": "21.8 ± 1.3", "unit": "µM"},
      {"measurement": "Emax (fold)", "setting": "[3]", "value": "5.1 ± 0.6", "unit": "fold"}
    ]}
  ]
}
